Experimental data taken from article PMC7180948, “New Insights into 4-Anilinoquinazolines as Inhibitors of Cardiac Troponin I–Interacting Kinase (TNNi3K)” (Molecules, 2020).

Tests used:
Assay in all cases: biochemical
Parameters in all cases: KINOMEscan competition binding panel (Eurofins DiscoverX), single concentration, percent inhibition
Details in all cases: read-out: 15 at 1 µM % inhibition
[1] = molecular target: T1, ABL1(F317L)-phosphorylated (Homo sapiens, UniProt P00519, F317L)
T1 construct: phosphorylated
Procedure, shortened: (§1)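 Values come from single-concentration (1 µM) profiling in the Eurofins DiscoverX KINOMEscan competition-binding platform, which covers over 400 kinases.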

ABL2 = ABL2 (Homo sapiens, UniProt P42684)
ABL2, sequence (P42684 whole entry): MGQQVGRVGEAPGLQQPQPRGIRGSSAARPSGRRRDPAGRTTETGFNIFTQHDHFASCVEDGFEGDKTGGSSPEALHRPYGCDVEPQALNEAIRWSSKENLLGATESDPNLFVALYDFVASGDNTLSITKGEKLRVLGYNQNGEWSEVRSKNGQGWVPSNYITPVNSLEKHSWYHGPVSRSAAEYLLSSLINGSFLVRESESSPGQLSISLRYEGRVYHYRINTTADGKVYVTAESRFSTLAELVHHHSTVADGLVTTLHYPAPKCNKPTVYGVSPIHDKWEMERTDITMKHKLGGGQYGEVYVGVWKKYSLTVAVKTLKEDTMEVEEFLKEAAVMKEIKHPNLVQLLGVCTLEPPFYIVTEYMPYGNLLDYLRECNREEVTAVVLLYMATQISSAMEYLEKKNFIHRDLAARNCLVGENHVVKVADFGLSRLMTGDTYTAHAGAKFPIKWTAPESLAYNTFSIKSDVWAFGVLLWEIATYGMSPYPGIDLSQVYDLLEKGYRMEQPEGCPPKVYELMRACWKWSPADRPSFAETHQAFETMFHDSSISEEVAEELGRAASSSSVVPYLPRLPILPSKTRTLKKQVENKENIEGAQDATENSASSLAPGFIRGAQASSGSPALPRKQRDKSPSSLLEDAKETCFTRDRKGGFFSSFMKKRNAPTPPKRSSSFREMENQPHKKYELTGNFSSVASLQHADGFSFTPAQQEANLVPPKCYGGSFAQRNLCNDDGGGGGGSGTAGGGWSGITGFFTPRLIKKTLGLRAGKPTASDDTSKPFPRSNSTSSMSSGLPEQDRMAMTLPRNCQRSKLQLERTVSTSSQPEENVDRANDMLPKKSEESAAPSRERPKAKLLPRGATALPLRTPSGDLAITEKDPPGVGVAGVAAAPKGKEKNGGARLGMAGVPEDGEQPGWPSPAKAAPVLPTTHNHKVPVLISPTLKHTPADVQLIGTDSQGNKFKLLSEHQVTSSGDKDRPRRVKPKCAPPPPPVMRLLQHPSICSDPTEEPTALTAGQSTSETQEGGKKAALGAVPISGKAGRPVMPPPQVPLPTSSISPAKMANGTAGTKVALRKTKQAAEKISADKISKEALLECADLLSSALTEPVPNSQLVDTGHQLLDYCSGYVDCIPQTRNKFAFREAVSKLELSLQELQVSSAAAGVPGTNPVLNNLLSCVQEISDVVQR
Procedure, shortened: as §1

BMPR2 = BMPR2 (Homo sapiens, UniProt Q13873)
Procedure, shortened: as §1

BRAF = BRAF (Homo sapiens, UniProt P15056)
Procedure, shortened: as §1

CSNK1G3 = CSNK1G3 (Homo sapiens, UniProt Q9Y6M4)
Procedure, shortened: as §1

CSNK2A1 = CSNK2A1 (Homo sapiens, UniProt P68400)
CSNK2A1, sequence (P68400 whole entry): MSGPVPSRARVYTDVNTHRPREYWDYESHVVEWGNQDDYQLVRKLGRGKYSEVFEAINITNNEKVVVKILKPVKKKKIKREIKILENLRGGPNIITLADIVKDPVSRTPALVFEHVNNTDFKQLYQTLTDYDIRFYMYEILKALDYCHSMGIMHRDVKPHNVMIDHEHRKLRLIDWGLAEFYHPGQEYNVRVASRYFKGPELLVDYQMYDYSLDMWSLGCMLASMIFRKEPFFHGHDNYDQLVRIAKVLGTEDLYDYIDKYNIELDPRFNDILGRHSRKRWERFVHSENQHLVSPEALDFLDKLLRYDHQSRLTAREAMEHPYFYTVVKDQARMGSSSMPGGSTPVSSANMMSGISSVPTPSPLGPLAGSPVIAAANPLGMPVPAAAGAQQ
Procedure, shortened: as §1

DAPK3 = DAPK3 (Homo sapiens, UniProt O43293)
Procedure, shortened: as §1

DCAMKL2 = molecular target: T2, DCAMKL2 (Homo sapiens, UniProt Q8N568)
T2 construct: gene DCLK2
T2 sequence (Q8N568 whole entry): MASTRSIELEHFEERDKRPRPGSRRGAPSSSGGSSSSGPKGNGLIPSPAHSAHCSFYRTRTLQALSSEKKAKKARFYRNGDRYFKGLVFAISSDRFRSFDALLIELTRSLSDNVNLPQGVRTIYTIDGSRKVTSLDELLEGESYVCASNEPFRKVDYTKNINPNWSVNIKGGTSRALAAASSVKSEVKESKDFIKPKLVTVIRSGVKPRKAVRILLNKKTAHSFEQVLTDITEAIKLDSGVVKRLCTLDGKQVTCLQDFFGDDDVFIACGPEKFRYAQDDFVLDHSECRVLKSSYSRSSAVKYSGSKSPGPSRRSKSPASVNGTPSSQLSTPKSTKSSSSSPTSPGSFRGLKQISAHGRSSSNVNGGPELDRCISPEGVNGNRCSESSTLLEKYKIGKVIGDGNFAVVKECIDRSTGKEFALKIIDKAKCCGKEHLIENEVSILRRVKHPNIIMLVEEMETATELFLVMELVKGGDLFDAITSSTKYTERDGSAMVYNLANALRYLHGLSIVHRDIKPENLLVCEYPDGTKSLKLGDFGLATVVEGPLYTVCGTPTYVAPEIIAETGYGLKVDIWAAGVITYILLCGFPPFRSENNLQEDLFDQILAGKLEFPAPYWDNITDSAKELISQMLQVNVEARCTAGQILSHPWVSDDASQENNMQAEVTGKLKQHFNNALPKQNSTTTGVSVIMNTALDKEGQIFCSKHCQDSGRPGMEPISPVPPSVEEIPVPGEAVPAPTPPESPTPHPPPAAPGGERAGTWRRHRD
Procedure, shortened: as §1

HUNK = HUNK (Homo sapiens, UniProt P57058)
Procedure, shortened: as §1

MAP3K15 = MAP3K15 (Homo sapiens, UniProt Q6ZN16)
Procedure, shortened: as §1

MAPKAPK2 = MAPKAPK2 (Homo sapiens, UniProt P49137)
Procedure, shortened: as §1

MARK2 = MARK2 (Homo sapiens, UniProt Q7KZI7)
Procedure, shortened: as §1

MEK3 = molecular target: T3, MEK3 (Homo sapiens, UniProt P46734)
T3 construct: gene MAP2K3
Procedure, shortened: as §1

MERTK = MERTK (Homo sapiens, UniProt Q12866)
MERTK, sequence (Q12866 whole entry): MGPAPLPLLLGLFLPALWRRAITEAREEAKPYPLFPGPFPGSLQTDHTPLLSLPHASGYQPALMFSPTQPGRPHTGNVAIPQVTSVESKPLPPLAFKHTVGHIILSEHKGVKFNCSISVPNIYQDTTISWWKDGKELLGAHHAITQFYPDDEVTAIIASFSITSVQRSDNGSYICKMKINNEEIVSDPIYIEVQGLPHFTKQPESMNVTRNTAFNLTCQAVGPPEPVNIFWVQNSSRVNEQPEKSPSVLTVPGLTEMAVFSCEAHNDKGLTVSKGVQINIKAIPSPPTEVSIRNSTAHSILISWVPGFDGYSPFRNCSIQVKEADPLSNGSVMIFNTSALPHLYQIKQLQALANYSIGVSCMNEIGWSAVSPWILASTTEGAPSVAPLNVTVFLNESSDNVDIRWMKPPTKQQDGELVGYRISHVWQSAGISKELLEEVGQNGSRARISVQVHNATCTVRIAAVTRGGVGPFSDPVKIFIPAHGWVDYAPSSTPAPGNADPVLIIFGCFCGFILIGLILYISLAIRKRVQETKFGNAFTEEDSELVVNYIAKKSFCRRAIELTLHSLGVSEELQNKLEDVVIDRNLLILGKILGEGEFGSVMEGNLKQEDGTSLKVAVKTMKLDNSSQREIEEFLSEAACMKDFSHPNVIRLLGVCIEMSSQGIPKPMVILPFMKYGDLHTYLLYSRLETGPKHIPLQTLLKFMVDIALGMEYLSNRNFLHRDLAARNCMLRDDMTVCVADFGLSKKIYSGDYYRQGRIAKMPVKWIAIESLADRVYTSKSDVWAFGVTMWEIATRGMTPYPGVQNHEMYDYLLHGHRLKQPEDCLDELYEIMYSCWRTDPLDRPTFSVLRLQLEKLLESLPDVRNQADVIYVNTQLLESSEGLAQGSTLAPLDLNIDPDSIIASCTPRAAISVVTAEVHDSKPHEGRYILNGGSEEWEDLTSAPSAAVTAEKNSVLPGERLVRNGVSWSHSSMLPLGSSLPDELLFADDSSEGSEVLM
Procedure, shortened: as §1

PAK6 = PAK6 (Homo sapiens, UniProt Q9NQU5)
Procedure, shortened: as §1

PIK3CA(E545K) = PIK3CA(E545K) (Homo sapiens, UniProt P42336, E545K)
Procedure, shortened: as §1

PIP5K1A = PIP5K1A (Homo sapiens, UniProt Q99755)
Procedure, shortened: as §1

PRKR = molecular target: T4, PRKR (Homo sapiens, UniProt P19525)
T4 construct: gene EIF2AK2
T4 sequence (P19525 whole entry): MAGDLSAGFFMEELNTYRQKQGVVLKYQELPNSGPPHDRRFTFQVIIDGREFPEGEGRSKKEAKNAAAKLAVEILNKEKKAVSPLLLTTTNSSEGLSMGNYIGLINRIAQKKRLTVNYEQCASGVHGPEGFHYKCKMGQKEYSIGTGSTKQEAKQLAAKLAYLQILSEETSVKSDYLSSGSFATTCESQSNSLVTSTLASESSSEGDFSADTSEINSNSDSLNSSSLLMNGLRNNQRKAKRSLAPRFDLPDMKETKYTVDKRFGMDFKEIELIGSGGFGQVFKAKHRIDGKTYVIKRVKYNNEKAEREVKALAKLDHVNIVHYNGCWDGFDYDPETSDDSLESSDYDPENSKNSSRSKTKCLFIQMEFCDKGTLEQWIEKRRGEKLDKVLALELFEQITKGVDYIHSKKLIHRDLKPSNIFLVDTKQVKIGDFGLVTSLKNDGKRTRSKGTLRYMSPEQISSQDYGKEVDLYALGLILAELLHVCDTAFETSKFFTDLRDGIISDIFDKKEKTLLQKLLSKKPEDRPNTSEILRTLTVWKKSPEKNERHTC
Procedure, shortened: as §1

RAF1 = RAF1 (Homo sapiens, UniProt P04049)
Procedure, shortened: as §1

RIOK3 = RIOK3 (Homo sapiens, UniProt O14730)
RIOK3, sequence (O14730 whole entry): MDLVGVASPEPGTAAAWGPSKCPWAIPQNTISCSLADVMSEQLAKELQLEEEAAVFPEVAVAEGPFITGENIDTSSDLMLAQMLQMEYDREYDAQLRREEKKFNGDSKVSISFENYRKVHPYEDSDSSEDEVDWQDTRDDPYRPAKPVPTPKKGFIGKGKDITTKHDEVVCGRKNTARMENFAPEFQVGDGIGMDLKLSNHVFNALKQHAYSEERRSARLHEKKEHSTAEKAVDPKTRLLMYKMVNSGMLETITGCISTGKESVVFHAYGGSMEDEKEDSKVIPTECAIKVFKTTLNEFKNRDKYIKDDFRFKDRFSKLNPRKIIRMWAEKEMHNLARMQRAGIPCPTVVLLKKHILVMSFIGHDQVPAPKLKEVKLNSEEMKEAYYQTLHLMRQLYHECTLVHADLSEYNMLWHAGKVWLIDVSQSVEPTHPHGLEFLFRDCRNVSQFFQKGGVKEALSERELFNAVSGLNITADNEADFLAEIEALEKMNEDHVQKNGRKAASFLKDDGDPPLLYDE
Procedure, shortened: as §1

[2] = molecular target: T5, RSK1(Kin.Dom.1-N-terminal) (Homo sapiens, UniProt Q15418)
T5 construct: gene RPS6KA1; Kin.Dom.1-N-terminal
Procedure, shortened: as §1

[3] = molecular target: T6, RSK2(Kin.Dom.1-N-terminal) (Homo sapiens, UniProt P51812)
T6 construct: gene RPS6KA3; Kin.Dom.1-N-terminal
Procedure, shortened: as §1

SGK2 = SGK2 (Homo sapiens, UniProt Q9HBY8)
SGK2, sequence (Q9HBY8 whole entry): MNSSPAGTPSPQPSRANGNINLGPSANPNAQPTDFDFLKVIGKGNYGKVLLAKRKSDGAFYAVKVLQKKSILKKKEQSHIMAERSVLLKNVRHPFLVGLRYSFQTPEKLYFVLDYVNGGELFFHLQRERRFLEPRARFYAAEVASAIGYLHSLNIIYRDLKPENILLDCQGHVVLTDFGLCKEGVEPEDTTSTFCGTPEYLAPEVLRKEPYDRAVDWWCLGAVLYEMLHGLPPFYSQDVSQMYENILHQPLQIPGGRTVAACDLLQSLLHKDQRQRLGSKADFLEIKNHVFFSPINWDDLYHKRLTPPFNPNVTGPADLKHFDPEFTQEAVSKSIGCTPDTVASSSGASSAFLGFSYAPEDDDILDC
Procedure, shortened: as §1

WNK3 = WNK3 (Homo sapiens, UniProt Q9BYP7)
Procedure, shortened: as §1

- inhibition at 1 µM [1]: 0%
- inhibition at 1 µM (ABL2): 0%
- inhibition at 1 µM (BMPR2): 21%
- inhibition at 1 µM (BRAF): 20%
- inhibition at 1 µM (CSNK1G3): 0%
- inhibition at 1 µM (CSNK2A1): 18%
- inhibition at 1 µM (DAPK3): 0%
- inhibition at 1 µM (DCAMKL2): 0%
- inhibition at 1 µM (HUNK): 0%
- inhibition at 1 µM (MAP3K15): 28%
- inhibition at 1 µM (MAPKAPK2): 0%
- inhibition at 1 µM (MARK2): 0%
- inhibition at 1 µM (MEK3): 22%
- inhibition at 1 µM (MERTK): 0%
- inhibition at 1 µM (PAK6): 3%
- inhibition at 1 µM (PIK3CA(E545K)): 21%
- inhibition at 1 µM (PIP5K1A): 22%
- inhibition at 1 µM (PRKR): 7%
- inhibition at 1 µM (RAF1): 0%
- inhibition at 1 µM (RIOK3): 0%
- inhibition at 1 µM [2]: 0%
- inhibition at 1 µM [3]: 15%
- inhibition at 1 µM (SGK2): 0%
- inhibition at 1 µM (WNK3): 0%
Structure (SMILES): CNS(=O)(=O)c1ccc(N(C)C)c(Nc2nc(C)nc3cc(OC)c(OC)cc23)c1 [compound 15, 3-((6,7-dimethoxy-2-methylquinazolin-4-yl)amino)-4-(dimethylamino)-N-methylbenzenesulfonamide]
